Laboratory results published in patent publication US9676714B2, “Sulfonylindole derivatives and method for preparing the same” (Daewoong Pharmaceutical Co., Ltd., priority 2013, dated 2017).
Where a name gives a salt, the structure may show the parent alone.

Biological target: T1, proton pump (H+/K+-ATPase) (Sus scrofa, UniProt P19156)
T1 construct: Gastric vesicles were prepared from hog stomach via centrifugal separation; from tissue; host or cells: hog stomach (gastric vesicles, method of Rabon et al. 1988)
T1 sequence (P19156 whole entry): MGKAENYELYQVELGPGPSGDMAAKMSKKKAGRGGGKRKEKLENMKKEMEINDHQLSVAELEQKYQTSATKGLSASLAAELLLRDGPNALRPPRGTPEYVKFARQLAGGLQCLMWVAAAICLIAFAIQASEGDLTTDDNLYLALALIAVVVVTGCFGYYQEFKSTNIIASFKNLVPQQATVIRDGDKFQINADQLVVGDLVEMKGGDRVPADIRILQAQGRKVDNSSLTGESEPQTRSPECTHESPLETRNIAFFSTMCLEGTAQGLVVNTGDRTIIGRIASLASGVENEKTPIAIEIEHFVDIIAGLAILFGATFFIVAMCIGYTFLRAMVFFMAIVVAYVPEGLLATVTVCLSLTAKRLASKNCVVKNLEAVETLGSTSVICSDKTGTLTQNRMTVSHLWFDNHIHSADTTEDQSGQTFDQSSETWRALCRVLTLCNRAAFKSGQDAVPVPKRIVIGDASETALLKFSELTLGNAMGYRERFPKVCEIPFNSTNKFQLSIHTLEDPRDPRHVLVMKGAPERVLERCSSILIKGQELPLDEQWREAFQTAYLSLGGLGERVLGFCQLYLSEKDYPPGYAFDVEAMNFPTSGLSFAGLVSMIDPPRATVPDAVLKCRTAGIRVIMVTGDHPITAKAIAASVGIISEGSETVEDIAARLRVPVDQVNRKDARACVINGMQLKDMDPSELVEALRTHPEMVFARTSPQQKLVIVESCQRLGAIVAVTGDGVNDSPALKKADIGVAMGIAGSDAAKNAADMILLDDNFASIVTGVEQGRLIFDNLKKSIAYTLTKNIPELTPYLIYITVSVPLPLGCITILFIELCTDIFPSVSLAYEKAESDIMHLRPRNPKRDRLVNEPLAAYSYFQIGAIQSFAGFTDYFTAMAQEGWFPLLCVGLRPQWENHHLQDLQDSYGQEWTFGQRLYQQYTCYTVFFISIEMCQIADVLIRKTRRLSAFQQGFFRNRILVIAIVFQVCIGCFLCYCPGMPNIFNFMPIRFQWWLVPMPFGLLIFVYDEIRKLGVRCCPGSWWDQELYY
T1 sequence (P18434 whole entry partner): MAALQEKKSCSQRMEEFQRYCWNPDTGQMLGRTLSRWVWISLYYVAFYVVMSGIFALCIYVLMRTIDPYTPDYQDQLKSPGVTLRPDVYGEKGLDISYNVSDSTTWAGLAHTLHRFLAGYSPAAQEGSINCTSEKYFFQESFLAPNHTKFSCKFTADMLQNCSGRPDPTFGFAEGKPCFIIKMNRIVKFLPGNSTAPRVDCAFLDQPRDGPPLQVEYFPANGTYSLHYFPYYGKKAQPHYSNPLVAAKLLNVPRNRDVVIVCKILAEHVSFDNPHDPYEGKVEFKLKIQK
Experiment: Measurement of inhibitory effects on proton pump (H+/K+-ATPase) activities
Format: biochemical
Conditions: hog gastric vesicles, K+-specific H+/K+-ATPase activity, Tris-HCl buffer pH 7.4, 37° C. for 40 minutes, malachite green Pi readout
Method in brief: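 Hog gastric vesicles in 60 mmol/l Tris-HCl pH 7.4 with 0.5% DMSO were treated with compounds at room temperature; reaction was started with 10 μl of 10 mmol/l ATP stock. Released Pi was read at 570 nm, K+-specific activity taken as the ±K+ difference. IC50 from 4-parameter logistic fit.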

SMILES	IC50
CNCc1cn(S(=O)(=O)c2cccnc2)c2cc(Nc3cccc(Cl)c3)ccc12 [Example 7, N-(3-chlorophenyl)-3-((methylamino)methyl)-1-(pyridin-3-ylsulfonyl)-1H-indol-6-amine hydrochloride]	590 nM
CNCc1cn(S(=O)(=O)c2cccc(OC)c2)c2cc(Nc3ccc(OC)cc3F)ccc12 [Example 167, N-(2-fluoro-4-methoxyphenyl)-1-((3-methoxyphenyl)sulfonyl)-3-((methylamino)methyl)-1H-indol-6-amine hydrochloride]	610 nM
CNCc1cn(S(=O)(=O)c2ccc(C(F)(F)F)cc2)c2cc(Nc3ccc(C)cc3Cl)ccc12 [Example 221, N-(2-chloro-4-methylphenyl)-3-((methylamino)methyl)-1-((4-(trifluoromethyl)phenyl)sulfonyl)-1H-indol-6-amine hydrochloride]	1580 nM
CNCc1cn(S(=O)(=O)c2cccc(OC(F)F)c2)c2cc(-c3cnc(F)c(C)c3)ccc12 [Example 263, 1-(1-((3-(difluoromethoxy)phenyl)sulfonyl)-6-(6-fluoro-5-methylpyridin-3-yl)-1H-indol-3-yl)-N-methylmethanamine hydrochloride]	60000 nM
CNCc1cn(S(=O)(=O)c2ccc(Cl)c(Cl)c2Cl)c2cc(Nc3ccc(C)cc3F)ccc12 [Example 240, N-(2-fluoro-4-methylphenyl)-3-((methylamino)methyl)-1-((2,3,4-trichlorophenyl)sulfonyl)-1H-indol-6-amine hydrochloride]	1670 nM
CNCc1cn(S(=O)(=O)c2cccnc2)c2cc(-c3ccc(N)cc3)ccc12 [Example 246, 4-(3-((methylamino)methyl)-1-(pyridin-3-ylsulfonyl)-1H-indol-6-yl)aniline]	530 nM
CNCc1cn(S(=O)(=O)c2cccc(OC(F)F)c2)c2cc(Nc3ccc(C)nc3F)ccc12 [Example 181, 1-((3-(difluoromethoxy)phenyl)sulfonyl)-N-(2-fluoro-6-methylpyridin-3-yl)-3-((methylamino)methyl)-1H-indol-6-amine hydrochloride]	1280 nM
CNCc1cn(S(=O)(=O)c2cccnc2)c2cc(-c3ccnn3C)ccc12 [Example 250, N-methyl-1-(6-(1-methyl-1H-pyrazol-5-yl)-1-(pyridin-3-ylsulfonyl)-1H-indol-3-yl)methanamine]	40000 nM
CNCc1cn(S(=O)(=O)c2cccc(F)c2)c2cc(Nc3ccc(Cl)nc3C)cnc12 [Example 344, N-(6-chloro-2-methylpyridin-3-yl)-1-((3-fluorophenyl)sulfonyl)-3-((methylamino)methyl)-1H-pyrrolo[3,2-b]pyridin-6-amine hydrochloride]	970 nM
CNCc1cn(S(=O)(=O)c2cccc(OC)c2)c2cc(Nc3ccc(Cl)cc3C(F)(F)F)ccc12 [Example 165, N-(4-chloro-2-(trifluoromethyl)phenyl)-1-((3-methoxyphenyl)sulfonyl)-3-((methylamino)methyl)-1H-indol-6-amine hydrochloride]	80 nM
CCNCc1cn(S(=O)(=O)c2cccc(C(F)(F)F)c2)c2cc(Nc3ccc(OC)nc3Cl)ccc12 [Example 317, N-(2-chloro-6-methoxypyridin-3-yl)-3-((ethylamino)methyl)-1-((3-(trifluoromethyl)phenyl)sulfonyl)-1H-indol-6-amine]	1920 nM
CNCc1cn(S(=O)(=O)c2cccnc2)c2cc(Nc3c(F)cc(F)cc3Br)ccc12 [Example 91, N-(2-bromo-4,6-difluorophenyl)-3-((methylamino)methyl)-1-(pyridin-3-ylsulfonyl)-1H-indol-6-amine hydrochloride]	870 nM
CNCc1cn(S(=O)(=O)c2cccnc2)c2cc(Nc3ccc(Cl)cc3C)ccc12 [Example 27, N-(4-chloro-2-methylphenyl)-3-((methylamino)methyl)-1-(pyridin-3-ylsulfonyl)-1H-indol-6-amine hydrochloride]	420 nM
CNCc1cn(S(=O)(=O)c2cccnc2)c2cc(Nc3ccc(C)cc3Cl)cnc12 [Example 345, N-(2-chloro-4-methylphenyl)-3-((methylamino)methyl)-1-(pyridin-3-ylsulfonyl)-1H-pyrrolo[3,2-b]pyridin-6-amine hydrochloride]	120 nM
CNCc1cn(S(=O)(=O)c2cccnc2)c2cc(Nc3cccnc3C(F)(F)F)ccc12 [Example 109, 3-((methylamino)methyl)-1-(pyridin-3-ylsulfonyl)-N-(2-(trifluoromethyl)pyridin-3-yl)-1H-indol-6-amine hydrochloride]	1980 nM
CNCc1cn(S(=O)(=O)c2cccnc2)c2cc(Nc3ccc(Cl)nc3Cl)ccc12 [Example 119, N-(2,6-dichloropyridin-3-yl)-3-((methylamino)methyl)-1-(pyridin-3-ylsulfonyl)-1H-indol-6-amine hydrochloride]	480 nM

SMILES	IC50
CNCc1cn(S(=O)(=O)c2cccnc2)c2cc(Nc3c(Cl)cc(F)cc3Cl)ccc12 [Example 84, N-(2,6-dichloro-4-fluorophenyl)-3-((methylamino)methyl)-1-(pyridin-3-ylsulfonyl)-1H-indol-6-amine hydrochloride]	530 nM
CNCc1cn(S(=O)(=O)c2cccnc2)c2cc(Cc3ccc(OC(F)(F)F)cc3OC)ccc12 [Example 281, 1-(6-(2-methoxy-4-(trifluoromethoxy)benzyl)-1-(pyridin-3-ylsulfonyl)-1H-indol-3-yl)-N-methylmethanamine hydrochloride]	1870 nM
CNCc1cn(S(=O)(=O)c2cccc(OC(F)(F)F)c2)c2cc(Nc3ccc(Cl)cc3F)ccc12 [Example 197, N-(4-chloro-2-fluorophenyl)-3-((methylamino)methyl)-1-((3-(trifluoromethoxy)phenyl)sulfonyl)-1H-indol-6-amine hydrochloride]	850 nM
CNCc1cn(S(=O)(=O)c2cccc(F)c2)c2cc(Nc3ccc(F)cc3Cl)ncc12 [Example 355, N-(2-chloro-4-fluorophenyl)-1-((3-fluorophenyl)sulfonyl)-3-((methylamino)methyl)-1H-pyrrolo[3,2-c]pyridin-6-amine hydrochloride]	480 nM
CNCc1cn(S(=O)(=O)c2cccnc2)c2cc(Nc3ccc(Cl)cc3Cl)cnc12 [Example 349, N-(2,4-dichlorophenyl)-3-((methylamino)methyl)-1-(pyridin-3-ylsulfonyl)-1H-pyrrolo[3,2-b]pyridin-6-amine hydrochloride]	280 nM
CNCc1cn(S(=O)(=O)c2cccc(C(F)(F)F)c2)c2cc(Nc3ccc(C(F)(F)F)cc3Cl)ccc12 [Example 187, N-(2-chloro-4-(trifluoromethyl)phenyl)-3-((methylamino)methyl)-1-((3-(trifluoromethyl)phenyl)sulfonyl)-1H-indol-6-amine hydrochloride]	980 nM
CNCc1cn(S(=O)(=O)c2cccc(F)c2)c2cc(Nc3ccc(C)nc3Cl)ncc12 [Example 358, N-(2-chloro-6-methylpyridin-3-yl)-1-((3-fluorophenyl)sulfonyl)-3-((methylamino)methyl)-1H-pyrrolo[3,2-c]pyridin-6-amine hydrochloride]	1270 nM
CNCc1cn(S(=O)(=O)c2cccnc2)c2cc(Cc3ccc(C)nc3F)ccc12 [Example 283, 1-(6-((2-fluoro-6-methylpyridin-3-yl)methyl)-1-(pyridin-3-ylsulfonyl)-1H-indol-3-yl)-N-methylmethanamine hydrochloride]	2630 nM
CNCc1cn(S(=O)(=O)c2cccnc2)c2cc(Nc3ncccc3Cl)ccc12 [Example 100, N-(3-chloropyridin-2-yl)-3-((methylamino)methyl)-1-(pyridin-3-ylsulfonyl)-1H-indol-6-amine hydrochloride]	800 nM
CNCc1cn(S(=O)(=O)c2cccnc2)c2cc(Nc3ccc(C(F)(F)F)cc3)ccc12 [Example 13, 3-((methylamino)methyl)-1-(pyridin-3-ylsulfonyl)-N-(4-(trifluoromethyl)phenyl)-1H-indol-6-amine hydrochloride]	1080 nM
CNCc1cn(S(=O)(=O)c2cccc(Br)c2)c2cc(Nc3ccc(C)cc3F)ccc12 [Example 228, 1-((3-bromophenyl)sulfonyl)-N-(2-fluoro-4-methylphenyl)-3-((methylamino)methyl)-1H-indol-6-amine hydrochloride]	900 nM
CNCc1cn(S(=O)(=O)c2cccnc2)c2cc(Nc3ccc(Oc4ccc(Cl)cc4)cc3)ccc12 [Example 19, N-(4-(4-chlorophenoxy)phenyl)-3-((methylamino)methyl)-1-(pyridin-3-ylsulfonyl)-1H-indol-6-amine hydrochloride]	1910 nM
CNCc1cn(S(=O)(=O)c2cccc(C#N)c2)c2cc(Nc3ccc(C)cc3F)ccc12 [Example 227, 3-((6-((2-fluoro-4-methylphenyl)amino)-3-((methylamino)methyl)-1H-indol-1-yl)sulfonyl)benzonitrile hydrochloride]	6490 nM
CNCc1cn(S(=O)(=O)c2cccc(F)c2)c2cc(Nc3ccc(C)cc3F)cnc12 [Example 339, N-(2-fluoro-4-methylphenyl)-1-((3-fluorophenyl)sulfonyl)-3-((methylamino)methyl)-1H-pyrrolo[3,2-b]pyridin-6-amine hydrochloride]	370 nM
CNCc1cn(S(=O)(=O)c2cccc(Cl)c2)c2cc(Nc3ccc(C)c(F)c3F)ccc12 [Example 156, 1-((3-chlorophenyl)sulfonyl)-N-(2,3-difluoro-4-methylphenyl)-3-((methylamino)methyl)-1H-indol-6-amine hydrochloride]	380 nM
CNCc1cn(S(=O)(=O)c2cccnc2)c2cc(Nc3ccc(F)nc3C)ccc12 [Example 116, N-(6-fluoro-2-methylpyridin-3-yl)-3-((methylamino)methyl)-1-(pyridin-3-ylsulfonyl)-1H-indol-6-amine hydrochloride]	1570 nM
